Assay [1] concerns IL-1 beta-induced coronary stenosis. The note with it: long term treatment, porcine model; cited from earlier work.
The subject of another assay is rat stroke model. The note with it: cited from earlier work.
For assay [2], the system named is spontaneously hypertensive rat, renal hypertensive rat and deoxycortisone acetate salt hypertensive rat models. The note with it: cited from earlier work.
For another assay, the system named is neointimal formation. The note with it: rats; cited from earlier work.
The subject of assay [3] is congestive heart failure in Dahl salt-sensitive rats. The note with it: cited from earlier work.
A further assay has as its target ROCK2 (Homo sapiens (Human), UniProt O75116). Description: ROCK2 assay (peptide phosphorylation, LABCHIP 3000 Reader). The class given is biochemical. The note with it: 5 μM ATP, 1.5 μM peptide substrate. A digest of the protocol:
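Human ROCK2 reaction in 20 mM HEPES pH 7.5, 20 mM MgCl2, 0.015% Brij-35, 4 mM DTT, with 5 μM ATP and 1.5 μM FITC-labelled peptide, DMSO <2%. Stopped with EDTA; phosphorylated and unphosphorylated peptide separated by microfluidic mobility shift. IC50 from dose-response curve fit.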

Each structure is given as a SMILES string. Like-named read-outs stand apart in the source and are kept apart here.

ROCK2, sequence (O75116 whole entry, species assumed): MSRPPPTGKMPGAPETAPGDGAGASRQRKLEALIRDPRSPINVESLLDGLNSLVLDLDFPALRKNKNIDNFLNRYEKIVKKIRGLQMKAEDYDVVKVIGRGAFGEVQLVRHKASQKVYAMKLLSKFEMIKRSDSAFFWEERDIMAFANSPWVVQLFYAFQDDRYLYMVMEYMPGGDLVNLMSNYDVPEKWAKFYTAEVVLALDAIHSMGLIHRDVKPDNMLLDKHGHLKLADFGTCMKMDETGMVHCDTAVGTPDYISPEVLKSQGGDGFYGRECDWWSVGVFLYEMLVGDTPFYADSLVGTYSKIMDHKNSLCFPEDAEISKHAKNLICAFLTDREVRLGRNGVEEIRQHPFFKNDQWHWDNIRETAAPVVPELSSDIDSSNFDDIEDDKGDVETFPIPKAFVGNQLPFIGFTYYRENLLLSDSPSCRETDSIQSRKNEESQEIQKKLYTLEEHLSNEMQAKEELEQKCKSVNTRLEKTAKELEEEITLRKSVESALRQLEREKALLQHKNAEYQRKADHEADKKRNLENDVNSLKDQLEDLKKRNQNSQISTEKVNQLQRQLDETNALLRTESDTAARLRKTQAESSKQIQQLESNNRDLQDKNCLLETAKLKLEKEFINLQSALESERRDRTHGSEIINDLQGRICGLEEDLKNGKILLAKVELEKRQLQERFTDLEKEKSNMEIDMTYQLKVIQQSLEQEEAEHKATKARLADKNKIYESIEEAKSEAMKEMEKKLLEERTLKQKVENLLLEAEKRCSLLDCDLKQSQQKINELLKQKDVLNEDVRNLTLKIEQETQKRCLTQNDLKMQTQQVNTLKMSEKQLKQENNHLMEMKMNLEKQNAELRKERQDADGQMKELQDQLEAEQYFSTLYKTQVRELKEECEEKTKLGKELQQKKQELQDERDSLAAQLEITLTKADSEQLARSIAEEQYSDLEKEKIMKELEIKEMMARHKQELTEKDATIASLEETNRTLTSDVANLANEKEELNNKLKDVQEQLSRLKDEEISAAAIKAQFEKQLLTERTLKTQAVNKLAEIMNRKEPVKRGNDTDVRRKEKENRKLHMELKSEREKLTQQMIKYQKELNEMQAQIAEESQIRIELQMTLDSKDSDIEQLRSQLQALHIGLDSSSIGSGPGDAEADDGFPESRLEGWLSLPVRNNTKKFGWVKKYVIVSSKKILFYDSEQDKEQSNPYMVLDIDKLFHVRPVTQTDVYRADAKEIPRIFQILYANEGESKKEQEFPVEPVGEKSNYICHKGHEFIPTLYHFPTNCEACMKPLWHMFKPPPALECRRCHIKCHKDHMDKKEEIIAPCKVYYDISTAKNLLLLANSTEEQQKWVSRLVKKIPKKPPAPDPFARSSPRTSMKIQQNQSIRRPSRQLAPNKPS

As to `O=S(=O)(c1cccc2cnccc12)N1CCCNCC1` [fasudil], in assay [1], the coronary constrictive remodeling result is “promote a regression” and the coronary stenosis entry is “progressively reduce coronary stenosis”. Further, the “infarct size and neurologic deficit” value in the assay on rat stroke model is “reduce both the infarct size and neurologic deficit”.

With `C[C@@H](N)[C@H]1CC[C@H](C(=O)Nc2ccncc2)CC1` [Example Y-27632, Y-27632], the blood pressure result in assay [2] (control rats) is “only a minor effect”; in assay [2] (three rat models of hypertension), “significantly decrease blood pressure”. For the same compound, the neointimal formation result in the assay with neointimal formation is on record as “inhibited neointimal formation”. For the same compound, the “ventricular hypertrophy, fibrosis and function” value in assay [3] was “improve”.

Compound `COc1cc(-n2nnn(Cc3cc(F)ccc3F)c2=O)ccc1-c1cn[nH]c1` [Example 181, 1-(2,5-difluorobenzyl)-4-(3-methoxy-4-(1H-pyrazol-4-yl)phenyl)-1H-tetrazol-5(4H)-one] showed an IC50 on ROCK2 of 50 to 250 nM.

The record behind these values is patent US10562887B2, “Triazolones and tetrazolones as inhibitors of ROCK” (BRISTOL-MYERS SQUIBB COMPANY, priority 2016, dated 2020).
